Columns and labels:
[1] = test system: advanced or metastatic urothelial tract tumors; conditions: cited from earlier work
[2] = test system: pancreatic cancer; conditions: 349 patients; cited from earlier work
[3] = test system: UC; conditions: cited from earlier work
[4] = test system: SUM185 cells; assay: Fab-ZAP internalization assay (cell viability, CTG); format: cell-based, human; conditions: SUM185 (higher Nectin-4)
Experimental: (§1) The ability of the anti-nectin-4 antibodies to induce nectin-4 internalization was assessed on SUM190 cell lines expressing lower levels of nectin-4 and in SUM185 cells expressing higher levels of Nectin-4. […] Internalization was indirectly determined by using the Fab-ZAP human Internalization Kit (Advanced Targeting Systems) to allow the anti-Nectin-4 antibodies to target and eliminate Nectin-4 expressing cells, with measurement of cell viability using the CTG substrate (CellTiter-Glo® Luminescent Cell Viability Assay (Promega). Fab-ZAP is a chemical conjugate of goat anti-human monovalent antibody and the ribosome-inactivating protein, saporin. The antibodies used are affinity-purified polyclonal antibodies against both the heavy and light chain of human IgG. This secondary conjugate is used to evaluate the potential of a primary antibody to internalize.
(§2) Briefly, a concentration range of the antibodies or the control items was incubated on top of the SUM190 or SUM185 cells. After the incubation, the non-bound antibodies were washed away and Fab-ZAP was added on top of the cells. The newly formed complexes (anti-nectin-4 antibody+Fab-ZAP) internalized into the cells where the Saporin was released and stopped the protein synthesis leading to cell death. The internalization capability of the antibody was indirectly determined by the cells viability: the more efficient was the cell killing; the better was the internalization capability of the antibody.

[5] = test system: SUM190 cells; assay: as above; format: cell-based, human; conditions: SUM190 (lower Nectin-4)
Experimental: as §1, §2

[6] = molecular target: T1, wild-type human Nectin-4 protein (Homo sapiens, UniProt Q96NY8); assay: Flow cytometry binding to CHO cells expressing wild-type Nectin-4
T1 construct: expressed in transfected cells
T1 sequence (Q96NY8 32-510): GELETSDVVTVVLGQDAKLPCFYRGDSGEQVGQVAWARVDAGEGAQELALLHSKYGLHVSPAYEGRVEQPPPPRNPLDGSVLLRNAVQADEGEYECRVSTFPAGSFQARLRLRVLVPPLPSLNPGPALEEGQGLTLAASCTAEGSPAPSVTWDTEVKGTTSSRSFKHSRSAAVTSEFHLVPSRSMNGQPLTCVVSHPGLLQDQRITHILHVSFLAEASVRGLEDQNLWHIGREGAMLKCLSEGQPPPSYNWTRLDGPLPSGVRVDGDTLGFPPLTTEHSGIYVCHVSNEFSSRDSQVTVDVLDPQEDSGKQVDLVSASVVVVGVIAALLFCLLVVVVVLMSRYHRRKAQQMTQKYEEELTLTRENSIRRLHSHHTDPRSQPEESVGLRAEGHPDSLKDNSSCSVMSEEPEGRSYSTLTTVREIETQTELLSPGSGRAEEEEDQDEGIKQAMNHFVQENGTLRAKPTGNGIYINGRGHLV
Experimental: (§3) The characterization of the binding of the antibodies on Nectin-4 domains was performed by flow cytometry using cells made to express the wild-type human Nectin-4 protein and cells made to express a modified Nectin-4 having the Ig-like C2 type 1 and the Ig-like C2 type 2 domains and lacking the Ig-like V domain (the C1C2 construct). The latter protein additionally bears a V5 tag for flow cytometry cell sorting, and cells were used as Nectin4-C1C2-V5 sorted cells.
(§4) Wild-type Nectin-4 (the CI.3C8 cell line), a C2 construct (containing the Ig-like C2 type 2 domain and lacking both the V and the C1 domains) and the C1C2 construct allow the determination of whether test antibodies bind to the V or different C domains. Briefly, nucleic acid sequences encoding different human Nectin-4 domains were amplified by PCR. The PCR products were inserted into an expression vector at appropriate restriction sites. A leader peptide, and for C1C2 and C2 an N-terminal V5 tag having the amino acid sequence […] (SEQ ID NO: 13), were added, and expression at the surface of cells was confirmed by flow cytometry. The amino acid sequences of the resulting different human Nectin-4 domain fragment-containing proteins are shown below (V5 tag underlined). The vectors were then transfected into the CHO cell line to obtain stable clones expressing the different Nectin-4 domain proteins at the cell surface.

[7] = molecular target: T2, modified Nectin-4 lacking the Ig-like V domain (the C1C2 construct) (Homo sapiens, UniProt Q96NY8); format: binding; conditions: flow cytometry, CHO cells
T2 construct: having the Ig-like C2 type 1 and the Ig-like C2 type 2 domains and lacking the Ig-like V domain (the C1C2 construct); expressed in transfected cells
T2 sequence (Q96NY8 148-510): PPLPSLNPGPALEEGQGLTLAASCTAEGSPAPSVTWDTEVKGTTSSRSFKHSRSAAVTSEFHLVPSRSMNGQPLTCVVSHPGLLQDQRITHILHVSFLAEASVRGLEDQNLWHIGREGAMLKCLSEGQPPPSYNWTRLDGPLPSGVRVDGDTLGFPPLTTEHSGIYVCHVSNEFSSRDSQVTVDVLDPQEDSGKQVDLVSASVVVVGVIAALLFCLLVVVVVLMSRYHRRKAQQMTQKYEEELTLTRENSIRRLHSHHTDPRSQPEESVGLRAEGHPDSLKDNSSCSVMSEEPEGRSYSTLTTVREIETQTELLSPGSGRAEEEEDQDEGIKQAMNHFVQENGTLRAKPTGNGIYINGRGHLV
Experimental: as §3, §4

[8] = test system: modified Nectin-4 lacking the Ig-like V domain (the C1C2 construct); format: binding, human; conditions: concluded from wild-type versus C1C2 binding
Experimental: as §3, §4

[9] = test system: SUM190 tumor cells; assay: ADC-induced tumor cell death, Cell Titer Glo viability at day 6; format: cell-based, human
Experimental: The resulting ADCs were tested for their ability to induce death of Nectin-4/Her2 expressing SUM190 and SUM185 tumor cells of Example 1. Briefly, cells were plated cells in 96 well plates (V=80 μl). N4 ADC1 and Her2 ADC1 or human IgG1-isotype control (IC)-linker-toxin or medium (conc. 5×) were tested in 1:2 serial dilution starting from (530 nM to 30 nM) and in a 1:5 serial dilution (7 nM to 7×10−2 nM) for the N4 ADC1 and isotype control. N4 ADC2 and isotype control were tested in 1:10 serial dilution starting from (530 nM to 5.3 10-2). The ADCs' ability to cause cell death was determined by assessing confluence using Incucyte S3-2 apparatus; viability at day 6 after treatment was determined using the Cell Titer Glo™ (CTG) assay with an Enspire2 apparatus. IC50 values for each ADC was determined using Luminescent Cell Viability at day 6 data with GraphPad Prism8. Experiments were repeated twice.
The anti-Nectin-4 camptothecin-analogue ADCs used were the N4 ADC1 as shown in Example 2. The anti-Her2 ADCs were also those used in Example 2 (Her2 ADC1). The ADC's ability to cause cell death was determined by assessing confluence and determining viability of SUM190 cells at day 6 as described in Example 2.

Molecule | ability to induce internalization [4] | ability to induce internalization [5] | binding to whole Nectin-4 protein [6] | binding to C1C2 construct lacking the V domain [7] | Nectin-4 domain bound [8] | other results
CC[C@@]1(O)C(=O)OCc2c1cc1n(c2=O)Cc2cc3c([N+](=O)[O-])cccc3nc2-1 [RFS2000] | – | – | – | – | – | activity in patients failing prior chemotherapy [1]: did not exert significant activity
CC[C@@]1(O)C(=O)OCc2c1cc1n(c2=O)Cc2c-1nc1cc(F)c(C)c3c1c2[C@@H](N)CC3 [exatecan] | – | – | – | – | – | efficacy of exatecan in addition to gemcitabine versus gemcitabine alone [2]: not superior in efficacy to gemcitabine alone
enfortumab vedotin | – | – | – | – | – | CR (complete response rate) ([3]; UC patients): 12%; ORR (objective response rate) ([3]; UC patients): 44%; discontinuation due to progressive disease as assessed by RECIST ([3]; UC patients): 48%; discontinuation due to progressive disease by clinical symptoms ([3]; UC patients): 5%; patients that discontinued experienced adverse events, notably neuropathy [3]: 18%
enfortumab: anti-Nectin-4 antibody, VH and VL of SEQ ID NOS: 3 and 4 as human IgG1 isotype | highly potent in the ability to induce of internalization | highly potent in the ability to induce of internalization | bound to the whole Nectin-4 protein | lost binding | within the V domain | –
N4 ADC2: Anti-Nectin-4 antibody conjugated to a second camptothecin (SN-38) containing linker (conjugate) VH: QVQLKQSGPGLVQPSQSLSITCTVSGFSLTNYGVHWVRQSPGKGLEWLGVIWSGGSTDYNAAFISRLSISKDTSKSQVFFKMNSLQADDTAIYYCARELIHAMDNWGQGTSVTVSS VL: DIQMTQSPASLSVSVGETVTITCRASENIYSNLAWYQQKQGNSPQLLVFAATNLADGVPSRFSGSGSGTQYSLKINSLQSEDFGTYYCQHFWGTPTFGGGTKLEIK | – | – | – | – | – | potency in causing tumor cell death (in words) [9]: good potency
N41: anti-Nectin-4 antibody, VH and VL of SEQ ID NOS: 9 and 10 as human IgG1 isotype (antibody, listed as Mus musculus, V domains shown, human IgG1 constant regions) VH: QVQLKQSGPGLVQPSQSLSITCTVSGFSLTNYGVHWVRQSPGKGLEWLGVIWSGGSTDYNAAFISRLSISKDTSKSQVFFKMNSLQADDTAIYYCARELIHAMDNWGQGTSVTVSS VL: DIQMTQSPASLSVSVGETVTITCRASENIYSNLAWYQQKQGNSPQLLVFAATNLADGVPSRFSGSGSGTQYSLKINSLQSEDFGTYYCQHFWGTPTFGGGTKLEIK | highly potent in the ability to induce of internalization | highly potent in the ability to induce of internalization | bound to the whole Nectin-4 protein | lost binding | within the V domain | –
